Measured values as given in patent publication US6028195A, “Piperazine derivatives and process for the preparation thereof” (Samjin Pharmaceutical Co., Ltd., priority 1996, dated 2000).
≈ marks a conversion by molar mass, not a printed value. Where two headings read alike, the source gives them in different places.

Legend:
Format in all cases: cell-based
Settings in all cases: for IC50: Homo sapiens
[1] = test system: A549 (human non-small lung cell); experiment: SRB assay, in vitro antitumor effect against A549
Description: (§1) In vitro antitumor effect against human tumor cell lines.
(§2) b. 5×10^3 ~2×10^4 cells were added into each well of 96-well plate and cultured in 5% CO2 incubator, at 37° C., for 24 hours.
(§3) c. Each sample drug was dissolved in a little DMSO and diluted with the used medium to a prescribed concentration for experiments, wherein the final concentration of DMSO was controlled below 0.5%.
(§4) d. Medium of each well cultured for 24 hours as above b. was removed by aspiration. Each 200 μl of drug samples prepared in c. was added into each well and the wells were cultured for 48 hours. Tz(time zero) plates were collected at the point of time drugs were added.
(§5) e. According to the SRB assay method, cell fixing with TCA, staining with 0.4% SRB solution, washing with 1% acetic acid and elution of dye with 10 mM Tris solution were carried out on Tz plates and culture-ended plates, and then, OD values were measured at 520 nm.
(§6) a. Time zero(Tz) value was determined with measuring the SRB protein value at the point of time drugs were added.
(§7) b. Control value(C) was determined with the OD value of an well untreated with drug.
(§8) c. Drug-treated test value(T) was determined with the OD value of drug-treated well.
(§9) d. Effects of drugs were estimated with growth stimulation, net growth inhibition, net killing etc. calculated from Tz, C and T.
(§10) e. If T≥Tz, cellular response function was calculated by 100×(T-Tz)/(C-Tz), and if T<Tz, by 100×(T-Tz)/Tz.

[2] = test system: SKOV-3 (human ovarian); experiment: SRB assay, in vitro antitumor effect against SKOV-3
Description: as §1, §2, §3, §4, §5, §6, §7, §8, §9, §10

[3] = test system: SKMEL-2 (human melanoma); experiment: SRB assay, in vitro antitumor effect against SKMEL-2
Description: as §1, §2, §3, §4, §5, §6, §7, §8, §9, §10

[4] = test system: XF 498 (human CNS); experiment: SRB assay, in vitro antitumor effect against XF 498
Description: as §1, §2, §3, §4, §5, §6, §7, §8, §9, §10

[5] = test system: HCT-15 (human colon); experiment: SRB assay, in vitro antitumor effect against HCT-15
Description: as §1, §2, §3, §4, §5, §6, §7, §8, §9, §10

[6] = A549, 48 hours, read-out: ED50 (the source's name)
[7] = SK-OV-3, 48 hours, read-out: ED50 (the source's name)
[8] = SK-MEL-2, 48 hours, read-out: ED50 (the source's name)
[9] = XF498, XF-498, 48 hours, read-out: ED50 (the source's name)
[10] = HCT 15, 48 hours, read-out: ED50 (the source's name)

Compound | IC50 [1, 6] [µg/mL] | IC50 [2, 7] [µg/mL] | IC50 [3, 8] [µg/mL] | IC50 [4, 9] [µg/mL] | IC50 [5, 10] [µg/mL] | also measured
1-{[2-(Pyridin-2-yl)quinolin-4-yl]aminocarbonyl}-4-(3,5-dimethoxyphenyl)piperazine [Example 128] |  |  |  |  |  | ED50 ([1]; A549, 48 hours): 0.40 µg/mL; ED50 ([2]; SK-OV-3, 48 hours): 0.37 µg/mL; ED50 ([3]; SK-MEL-2, 48 hours): 0.42 µg/mL; ED50 ([4]; XF-498, 48 hours): 0.44 µg/mL; ED50 ([5]; HCT 15, 48 hours): 0.51 µg/mL
COc1cccc2c1C(=O)c1c(O)c3c(c(O)c1C2=O)C[C@@](O)(C(=O)CO)C[C@@H]3O[C@H]1C[C@H](N)[C@H](O)[C@H](C)O1 [Adriamycin, reference compound] |  |  |  |  |  | IC50 ([1]; A549, 48 h, read-out: ED50): 0.0168 µg/mL (≈ 0.0309 µM); IC50 ([2]; SK-OV-3, 48 h, read-out: ED50): 0.0176 µg/mL (≈ 0.0324 µM); IC50 ([3]; SK-MEL-2, 48 h, read-out: ED50): 0.0108 µg/mL (≈ 0.0199 µM); IC50 ([4]; XF498, 48 h, read-out: ED50): 0.025 µg/mL (≈ 0.046 µM); IC50 ([5]; HCT-15, 48 h, read-out: ED50): 1.67 µg/mL (≈ 3.07 µM)
N.N.[Cl][Pt][Cl] [Cisplatin, reference compound] |  |  |  |  |  | ED50 ([1]; A549, 48 hours): 0.8184 µg/mL; ED50 ([2]; SK-OV-3, 48 hours): 0.7134 µg/mL; ED50 ([3]; SK-MEL-2, 48 hours): 0.7147 µg/mL; ED50 ([4]; XF-498, 48 hours): 0.7771 µg/mL; ED50 ([5]; HCT 15, 48 hours): 3.0381 µg/mL
CCCc1cc(NC(=O)N2CCN(c3ccccc3OC)CC2)c(OC)nc1C [Example 11, 1-[(2-Methoxy-6-methyl-5-propylpyridin-3-yl)aminocarbonyl]-4-(2-methoxyphenyl)piperazine] | 0.91 (≈ 2.28 µM) | 0.56 (≈ 1.41 µM) | 0.62 (≈ 1.56 µM) | 0.73 (≈ 1.83 µM) | 0.71 (≈ 1.78 µM) | 
CCc1nc(OC)c(NC(=O)N2CCN(c3cccc(O)c3)CC2)cc1C [Example 14, 1-[(6-Ethyl-2-methoxy-5-methylpyridin-3-yl)aminocarbonyl]-4-(3-hydroxyphenyl)piperazine] | 0.022 (≈ 0.0594 µM) | 0.02 (≈ 0.054 µM) |  | 0.16 (≈ 0.432 µM) | 0.007 (≈ 0.0189 µM) | IC50 ([3]; SK-MEL-2, 48 h, read-out: ED50): 0.001 µg/mL (≈ 0.0027 µM)
CCCc1nc(OC)c(NC(=O)N2CCN(c3cccc(O)c3)CC2)cc1C [Example 17, 1-[(2-Methoxy-5-methyl-6-propylpyridin-3-yl)aminocarbonyl]-4-(3-hydroxyphenyl)piperazine] | 0.018 (≈ 0.0468 µM) | 0.01 (≈ 0.026 µM) | 0.021 (≈ 0.0546 µM) |  | 0.008 (≈ 0.0208 µM) | IC50 ([4]; XF498, 48 h, read-out: ED50): 0.077 µg/mL (≈ 0.2 µM)
CCCc1nc(OC)c(NC(=S)N2CCN(c3cc(C)cc(C)c3)CC2)cc1C [Example 27, 1-[(2-Methoxy-5-methyl-6-propylpyridin-3-yl)aminothiocarbonyl]-4-(3,5-dimethylphenyl)piperazine] | 0.02 (≈ 0.0485 µM) | 0.11 (≈ 0.267 µM) | 0.01 (≈ 0.0242 µM) |  | 0.165 (≈ 0.4 µM) | IC50 ([4]; XF498, 48 h, read-out: ED50): 0.046 µg/mL (≈ 0.111 µM)

Continued, in another order:

IC50 [1, 6] [µg/mL] | IC50 [2, 7] [µg/mL] | IC50 [3, 8] [µg/mL] | IC50 [4, 9] [µg/mL] | IC50 [5, 10] [µg/mL] | Compound | also measured
0.007 (≈ 0.0175 µM) | 0.022 (≈ 0.0549 µM) | 0.007 (≈ 0.0175 µM) | 0.94 (≈ 2.35 µM) | 0.093 (≈ 0.232 µM) | CCc1cc(NC(=O)N2CCN(c3ccccc3SC)CC2)c(OC)nc1C [Example 4, 1-[(5-Ethyl-6-methyl-2-methoxypyridin-3-yl)aminocarbonyl]-4-(2-methylthiophenyl)piperazine] | 
0.71 (≈ 1.8 µM) | 0.96 (≈ 2.43 µM) | 0.6 (≈ 1.52 µM) | > 10 | 0.96 (≈ 2.43 µM) | C=C(C)c1ccccc1N1CCN(C(=O)Nc2cc(CC)c(C)nc2OC)CC1 [Example 5, 1-[(5-Ethyl-6-methyl-2-methoxypyridin-3-yl)aminocarbonyl]-4-(2-isopropenylphenyl)piperazine] | 
0.15 (≈ 0.378 µM) | 0.07 (≈ 0.177 µM) | 0.21 (≈ 0.53 µM) | 0.11 (≈ 0.277 µM) | 0.11 (≈ 0.277 µM) | CCCc1cc(NC(=O)N2CCN(c3cc(C)cc(C)c3)CC2)c(OC)nc1C [Example 9, 1-[(2-Methoxy-6-methyl-5-propylpyridin-3-yl)aminocarbonyl]-4-(3,5-dimethylphenyl)piperazine] | 
0.09 (≈ 0.229 µM) | 0.04 (≈ 0.102 µM) | 0.09 (≈ 0.229 µM) | 0.092 (≈ 0.234 µM) | 0.05 (≈ 0.127 µM) | COc1nc(C)c(C)cc1NC(=S)N1CCN(c2cc(F)cc(F)c2)CC1 [Example 23, 1-[(5,6-Dimethyl-2-methoxypyridin-3-yl)aminothiocarbonyl]-4-(3,5-difluorophenyl)piperazine] | 
0.03 (≈ 0.0805 µM) | 0.006 (≈ 0.0161 µM) | 0.01 (≈ 0.0268 µM) | 0.234 (≈ 0.628 µM) | 0.01 (≈ 0.0268 µM) | COc1nc(C)c(C)cc1NC(=S)N1CCN(c2cccc(O)c2)CC1 [Example 24, 1-[(5,6-Dimethyl-2-methoxypyridin-3-yl)aminothiocarbonyl]-4-(3-hydroxyphenyl)piperazine] | 
